Reference: ChEMBL document CHEMBL1135603, “Modeling of binding modes and inhibition mechanism of some natural ligands of farnesyl transferase using molecular docking” (J Med Chem, 2002)

Tests used:
[1] = molecular target: Protein farnesyltransferase (Rattus norvegicus, UniProt Q02293+Q04631); experiment: Inhibition of Farnesyltransferase; assay type: protein-complex assay
[2] = Partition coefficient (logP); assay type: physicochemical; conditions: octanol/water

SMILES	IC50 [1]	logP [2]
CC(C)CCCC(C)C1CCC2C3C(CC[C@]12C)[C@@](C)(CCC(=O)O)C(=O)C[C@@H]3C (some centres not stated)	900 nM	–
CC(C)CCCC(C)C1CCC2C3CCC(=O)[C@](C)(C[C@@H](CC(=O)O)C(=O)O)C3CC[C@]12C (some centres not stated)	190 nM	–
CC(=O)O[C@H]1CC[C@]2(C=O)[C@H](CC[C@@]3(C)[C@H]2C=C(C)[C@@]2(C)C(O)=C(C)C(=O)[C@]23C(=O)O)C1(C)C [ANDRASTATIN A]	24900 nM	1.7
CC(=O)O[C@H]1CC[C@]2(CO)[C@H](CC[C@@]3(C)[C@H]2C=C(C)[C@@]2(C)C(O)=C(C)C(=O)[C@]23C(=O)O)C1(C)C [ANDRASTATIN B]	47100 nM	1.6
CC(=O)O[C@H]1CC[C@]2(C)[C@H](CC[C@@]3(C)[C@H]2C=C(C)[C@@]2(C)C(O)=C(C)C(=O)[C@]23C(=O)O)C1(C)C [ANDRASTATIN C]	13300 nM	2.7

Results, then the compound that gave them:

IC50 [1]	logP [2]	SMILES
360 nM	1.8	C=C1C(=O)O[C@@H]2[C@H]3C[C@@]4(C)C=CC3(CC43C(=O)O[C@@H]4C5C(C)=CC(=O)C5=C(C)C[C@H](CC(=O)CC(C)C)C43)[C@](C)(O)CC[C@@H]12 (some centres not stated) [ARTEMINOLIDE]
300 nM	1.8	COC(=O)C1=CC(CO)=COc2oc3cccc(O)c3c(=O)c21 [FUSIDIENOL]
–	1.3	CC(C)=CCC/C(C)=C/CC/C(C)=C/CC/C(=C\C(=O)O)C(=O)O [SCHIZOSTATIN E]
300000 nM	1.4	CC(C)=CCC/C(C)=C/CC/C(C)=C/CC/C(=C/C(=O)O)C(=O)O [SCHIZOSTATIN Z]
12 nM	2	C=C(CC[C@]12O[C@H](C(=O)O)[C@@](O)(C(=O)O)[C@](C(=O)O)(O1)[C@H](OC(=O)/C=C/[C@@H](C)C[C@@H](C)CC)[C@H]2O)[C@@H](OC(C)=O)[C@H](C)Cc1ccccc1 [ZARAGOZIC ACIDS A]
